In brackets after ≈: the same amount, converted by molar mass. Several values for one entry are separate records, joined by “and”; a condition that tells them apart may be missing. Identical values can stand only once.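 Step 1: Grow cells in 96-well plates. Step 2: Expose to compound for 48 hours at 5 concentrations. Step 3: Interpolate endpoints linearly; if unreached, use highest concentration. GI50: concentration for 50% inhibition of growth. TGI: total growth inhibition.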

Among the test systems are DU-145 prostate; HS 578T breast; M19-MEL melanoma; DLD-1 colon; KM20L2 colon; HOP-18 NSCLC; MDA-N.
Experiment in all cases: inhibition of tumour cell growth, NCI panel, 48 h

For the molecule `CN(C)CCCNC(=O)c1cc(NC(=O)c2cc(NC(=O)CCCN3c4ccccc4C=Cc4ccccc43)cn2C)cn1C`, in the assay with DU-145 prostate, the GI50 was 10.6 µM and the TGI worked out at 35.4 µM. In the assay on HS 578T breast, the GI50 was 4.87 µM and the TGI is 40 µM.
For `CCOC(=O)Oc1c(OC)cc(C(=O)c2ccc(OC)c(OC(=O)CCl)c2OC)cc1OC`, in the assay with DU-145 prostate, the GI50 is 1.83 µM and the TGI is more than 100 µM. Moreover, in the assay on HS 578T breast, the GI50 was 0.556 µM and the TGI is more than 100 µM.
Take `COc1ccc(/C=C(\C#N)n2nnc3cc(Cl)ccc32)cc1`: the results for the GI50 with DU-145 prostate and in the assay on HS 578T breast were 1.71 µM and 2.55 µM, respectively. Besides, the TGI was determined as 7.58 µM in the assay on DU-145 prostate and 9.37 µM in the assay on HS 578T breast.
Regarding `COC(=O)[C@H](C)[C@H]1CC[C@@](C)([C@H]2CC3C(C)(C)[C@H]4CCC(C)=C[C@H]4C[C@@]3(C)O2)OO1` (stereo not given in full), the TGI in the assay on M19-MEL melanoma is 28.8 µM; with DLD-1 colon it was 25.9 µM; with KM20L2 colon, 27.5 µM.
As to `COC(=O)C/C(C)=C/[C@@H](O)[C@H]1O[C@@H]2CC/C(Cl)=C/C/C=C(/C)[C@H](OC(C)=O)CC(=O)O[C@@H]1C2`, the GI50 in the assay on DU-145 prostate is 1.29 µM; in the assay with HS 578T breast, 0.546 µM. In addition, the TGI in the assay on DU-145 prostate is more than 25 µM; in the assay with HS 578T breast it was 2.14 µM.
Take `NC(=O)c1csc(C2O[C@@H](COP(=O)(O)OP(=O)(O)OC[C@H]3OC(n4cnc5c(N)ncnc54)[C@H](O)[C@@H]3O)[C@H](O)[C@@H]2O)n1` (stereo not given in full): the TGI in the assay on HOP-18 NSCLC, in the assay on DLD-1 colon and with KM20L2 colon was more than 100 µM throughout.
For the molecule `O=C(O)CSCC(=O)c1ccccc1`, the TGI with DU-145 prostate, with HS 578T breast and in the assay on MDA-N was more than 100 µM each time.
Consider `O=C1NC(=O)C2=C1CCC2O` (stereo not given), for which the TGI in the assay with DU-145 prostate, in the assay on HS 578T breast and with MDA-N was more than 100 µM throughout.
For the molecule `COC(=O)c1ccc(-c2nc3cc(F)c(F)cc3nc2C#N)cc1`, the GI50 in the assay with DU-145 prostate was 8.7 µM; in the assay on HS 578T breast it was 1.57 µM. Also, the TGI came to 17.3 µM in the assay with DU-145 prostate and 4.79 µM with HS 578T breast.
On to `O=C(Nc1cccc(C2=NCCN2)c1)c1ccc(OCCCOc2ccc(C(=O)Nc3cccc(C4=NCCN4)c3)cc2)cc1`, for which, in the assay with HS 578T breast, the GI50 is 2.55 µM and the TGI was 6.6 µM.
In the case of `COc1ccc2c(CN3CCC(CO)CC3)cc3cc4c(cc3c2c1)OCO4`, in the assay on DU-145 prostate, the GI50 was 0.25 µM and the TGI stood at 12.6 µM. For the same molecule, in the assay on HS 578T breast, the GI50 was 0.5 µM and the TGI is 12.4 µM.
As for `COc1ccc(/C=C/C(=O)/C=C(/C=C/c2ccc(OC)c(OC)c2)OB(F)F)cc1OC`, in the assay with DU-145 prostate, the GI50 is 1.12 µM and the TGI was 2.84 µM. In the assay with HS 578T breast, the GI50 was 1.31 µM and the TGI came to 8.15 µM.
For `COc1cccc2c(Nc3ccc(C(=O)NCCNCCO)cc3)cc(-c3ccccc3)nc12`, in the assay with DU-145 prostate, the GI50 is 58.7 µM and the TGI was more than 100 µM. In the assay on HS 578T breast, the GI50 was 29.3 µM and the TGI was more than 100 µM.
`N#Cc1c2ccccc2c2nnc3cc(C(F)(F)F)ccc3n12`: in the assay on DU-145 prostate, the GI50 was 58.4 µM and the TGI was more than 100 µM.
`COc1ccc(C(=O)c2cc(OC)c(OC)c(OC)c2)cc1/C=C/C(=O)c1ccc(O)cc1`: in the assay with DU-145 prostate, the GI50 is 1.88 µM and the TGI is 3.45 µM. Besides, in the assay with HS 578T breast, the GI50 is 18.3 µM and the TGI was more than 100 µM.
The like results for `OCc1ccc(N(Cc2ccc(F)cc2)C2CCC2)cc1Cl` were, in that order, 14.2 µM, 28 µM, 19 µM and 45.4 µM.
As to `O=C(O)C(Cc1ccccc1-c1ccccc1)C(=O)O`, the TGI with DU-145 prostate, in the assay on HS 578T breast and in the assay on MDA-N was more than 100 µM throughout.
As to `O=C(Nc1cccc(NS(=O)(=O)c2ccc(F)cc2)c1)c1ccc(-c2ccccc2)cc1`, the GI50 with DU-145 prostate is 3.96 µM; in the assay on HS 578T breast, 4.68 µM. Moreover, the TGI with DU-145 prostate was more than 100 µM; with HS 578T breast, 52.5 µM.
Regarding `O=C(Oc1cccc(Nc2ncnc3ccccc23)c1)c1ccccc1Cl`, in the assay on DU-145 prostate, the GI50 is 22.3 µM and the TGI was more than 100 µM. Also, in the assay with HS 578T breast, the GI50 was 19.1 µM and the TGI is 48.1 µM.
Turning to `Cc1ccc2c(/C=C/C(=O)c3cc(CN4CCOCC4)c(O)c4nc(C)ccc34)cc(CN3CCOCC3)c(O)c2n1`, in the assay with HS 578T breast, the GI50 was 1.28 µM and the TGI is more than 100 µM.
For the molecule `Cc1cc(S(=O)(=O)Nc2nnc(-c3ccco3)c(-c3ccco3)n2)c(SCc2ccccc2)cc1Cl`, in the assay on DU-145 prostate, the GI50 is 17 µM and the TGI stood at 32.5 µM. Moreover, in the assay on HS 578T breast, the GI50 is 29.7 µM and the TGI came out at 64.9 µM.
In the case of `CCNCCNc1cc(-c2ccc(Cl)cc2)c(C#N)c2nc3ccccc3n12`, in the assay on DU-145 prostate, the GI50 was 1.71 µM and the TGI is 3.09 µM. Also, in the assay with HS 578T breast, the GI50 was 2.2 µM and the TGI turned out to be 4.68 µM.
On to `CC1/C=C/C=C/CC/C=C/C=C/C=C/C=C/C(OC2OC(C)C(O)C(N)C2O)CC2OC(CC(O)C(O)CCC(O)CC(O)CC(O)CC(=O)OC(C)C(C)C1O)CC(O)C2C(=O)O` (stereo not given), for which the GI50 in the assay with DU-145 prostate is 32.3 µg/mL; in the assay with HS 578T breast it was 32.5 µg/mL; with MDA-N, 25.6 µg/mL (≈ 28.2 µM). The TGI with DU-145 prostate is 32.4 µM and 73.5 µg/mL; in the assay with HS 578T breast, 55.1 µM and 66.9 µg/mL; in the assay with MDA-N it was 31.8 µM and 46.7 µg/mL.
For the molecule `CC1(c2ccccc2)CC12C(=O)NC(=O)NC2=O` (stereo not given), the TGI with M19-MEL melanoma, in the assay on DLD-1 colon and in the assay on KM20L2 colon was more than 100 µM in each case.
On to `O=c1oc2ccccc2cc1-c1ccc([N+](=O)[O-])cc1`, for which the TGI in the assay with DU-145 prostate, in the assay on HS 578T breast and with MDA-N was more than 100 µM in each case.
For `C=C1C(=O)OC2C1C(OC(=O)/C(C)=C/C)CC(O)(CCl)C1C(OC(C)=O)C=C(C)C21O` (stereo not given), the TGI is 29 µM with DU-145 prostate, more than 100 µM in the assay on HS 578T breast and 41.8 µM in the assay with MDA-N.
Regarding `COc1c2c(c(OC)c3c(=O)cc(C/C(=N/NC(=O)C[n+]4ccccc4)C(=O)Nc4cc(C)ccc4C)oc13)OCO2`, the TGI in the assay with M19-MEL melanoma, in the assay with DLD-1 colon and with KM20L2 colon was more than 100 µM in each case.

The record behind these values is PubChem BioAssay (NCI).
